Reference: paper PMC8621373, “New Bioactive Fused Triazolothiadiazoles as Bcl-2-Targeted Anticancer Agents” (International Journal of Molecular Sciences, 2021)
Several values for one entry are separate records, joined by “and”; a condition that tells them apart may be missing. Identical values can stand only once. Entries after “also recorded” stand apart in the source; their conditions may differ.

Assays:
[1] = system: MDA-MB-231; test: Cell viability by MTT assay, MDA-MB-231; assay type: cell-based; settings: Homo sapiens, growth inhibition, 72 h, mean ± SEM
Experimental: (§1) Human breast cancer (MDA-MB-231) and cervical cancer (HeLa) cells, obtained from the ATCC (Manassas, VA, USA), were maintained as previously described. Cytotoxic effects of the tested compounds were assessed using MTT assay. Briefly, 4000 cells in 0.1 mL of medium (Life Technologies, Paisley, UK) were seeded and allowed to adhere for 24 h. The cells were treated with different concentrations of the tested compounds (from 0.00001 to 100 µM) and incubated for 72 h. In total, 20 µL of (5 mg/mL) MTT reagent (3-[4,5-dimethylthiazol-2-yl]-2,5-diphenyl tetrazolium bromide) in PBS was added and incubated for 4 h. The developed purple colour following the addition of DMSO was measured using a Multiskan Go machine (spectrophotometer) at 570 nm absorbance. Each concentration experiment was repeated independently 6 times to establish reproducibility. The percentage cell viability was calculated following the formula below, and IC50 values were obtained by using GraphPad Prism 5 software (San Diego, CA, USA). Cell viability (%) = [(OD test − OD blank) ÷ (OD negative control − OD blank)] × 100(1)

[2] = system: HeLa; test: Cell viability by MTT assay, HeLa; assay type: cell-based; settings: Homo sapiens, growth inhibition, 72 h, mean ± SEM
Experimental: as §1

[3] = system: KG1a; test: Cell viability CellTiter-Blue assay, KG1a; assay type: cell-based, human; settings: for IC50: Homo sapiens, KG-1a, growth inhibition, CellTiter-Blue, 24 h, mean ± SEM
Experimental: (§2) Human acute myeloid leukemia KG1a and acute T-cell lymphocytic leukemia Jurkat cells were cultured and maintained as previously described. For each experiment, 15,000 cells in 0.1 mL of medium were seeded into a solid-black fluorescence 96-well plate and incubated for 24 h. The cells were treated with different concentrations of the test compounds (from 0.00001 to 100 µM) over a 10-fold dilution series and incubated for 24 h. CellTiter-Blue® solution was added, followed by reading of the fluorescence according to our previous protocol. IC50 values were obtained by using GraphPad Prism 5 software (San Diego, CA, USA). For each concentration, six independent experiments were carried out.

[4] = system: Jurkat; test: Cell viability CellTiter-Blue assay, Jurkat (Bcl-2-negative); assay type: cell-based, human; settings: Bcl-2-negative cell line; for IC50: Homo sapiens, Jurkat, growth inhibition, CellTiter-Blue, 24 h, mean ± SEM
Experimental: as §2

[5] = target: His-tagged Bcl-2 protein (Homo sapiens, UniProt P10415); test: Competitive ELISA binding assay (interruption of Bcl-2-Bim interaction); settings: for IC50: competition with Bim peptide, mean and SEM of three independent measurements
Experimental: ELISA assay was performed to evaluate the ability of the compounds to compete with Bim protein and inhibit its interaction with Bcl-2 protein.. The addition of His-tagged Bcl-2 protein to a biotinylated Bim-coated plate according to our previously published protocol was followed by the addition of anti-His antibody (Abcam, Cambridge, UK) containing horseradish peroxidase enzyme (Qiagen, Crawley, UK), o-phenylenediamine (Sigma-Aldrich, UK) and hydrogen peroxide. The optical density was determined using a plate reader at wavelength of 450 nm. The experiments were carried out on three separate occasions, including both negative and positive controls. A plot of log nM concentration for each inhibitor against the percentage reduction in the Bim peptide was created, using non-linear regression curve analysis (GraphPad Prism 5, San Diego, CA, USA) and a software used to generate IC50 for the Bcl-2 inhibition activity.

[6] = system: Bcl-2-expressing human cancer cell lines (MDA-MB-231, HeLa and KG1a); test: Growth inhibition of Bcl-2-expressing human cancer cell lines (summary); assay type: cell-based; settings: span over MDA-MB-231, HeLa and KG1a, read-out: IC50 against Bcl-2-expressing cell lines
Experimental: as §1, with “Cell viability (%) = [(OD test − OD blank) ÷ (OD negative control − OD blank)] × 100(1)” left out
Human acute myeloid leukemia KG1a and acute T-cell lymphocytic leukemia Jurkat cells were cultured and maintained as previously described. For each experiment, 15,000 cells in 0.1 mL of medium were seeded into a solid-black fluorescence 96-well plate and incubated for 24 h. […] CellTiter-Blue® solution was added, followed by reading of the fluorescence according to our previous protocol. […]

Chain of His-tagged Bcl-2 protein (P10415 whole entry): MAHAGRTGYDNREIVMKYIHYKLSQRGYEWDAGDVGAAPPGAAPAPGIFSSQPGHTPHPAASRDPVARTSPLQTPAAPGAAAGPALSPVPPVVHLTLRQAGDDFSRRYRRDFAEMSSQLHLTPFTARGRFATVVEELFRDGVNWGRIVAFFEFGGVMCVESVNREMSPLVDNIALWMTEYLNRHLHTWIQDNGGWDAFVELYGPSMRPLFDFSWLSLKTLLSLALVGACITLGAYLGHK

IC50 [1] [µM]	IC50 [2] [µM]	IC50 [4] [µM]	melting point [°C]	IC50 [5]	ELISA IC50 compared to (−)-gossypol positive control ([5]; competitive Bcl-2 ELISA)	IC50 [6] [µM]	SMILES	IC50 [3] [µM]	activity against Jurkat cells (in words) [4]	activity against KG1A cell line (in words) ([3]; Acute Myeloid Leukemia cell line)
2.72 ± 0.32	0.54 ± 0.02	8.12 ± 0.16	183 to 185	–	–	–	Ic1ccc(-c2nn3c(-c4c[nH]c5ccccc45)nnc3s2)cc1 [Compound 5a, 3-[6-(4-Iodophenyl)-[1,2,4]-triazolo[3,4-b]-[1,3,4]-thiadiazol-3-yl]-1H-indole]	1.66 ± 0.03	–	–
1.7 ± 0.61	2.7 ± 0.9	> 100	192 to 194	1.14 ± 0.09 µM	–	–	COc1ccc(-c2nn3c(-c4c[nH]c5ccccc45)nnc3s2)cc1 [Compound 5b, 3-[6-(4-Methoxyphenyl)-[1,2,4]-triazolo[3,4-b]-[1,3,4]-thiadiazol-3-yl]-1H-indole]	3.14 ± 0.19	no activity	–
16.3 ± 0.19	12.5 ± 0.23	> 100	201 to 203	–	–	–	Cc1ccc(-c2nn3c(-c4c[nH]c5ccccc45)nnc3s2)cc1 [Compound 5c, 3-(6-p-Tolyl-[1,2,4]-triazolo[3,4-b]-[1,3,4]-thiadiazol-3-yl)-1H-indole]	> 100	no activity	inactive
8.29 ± 0.9	9.8 ± 0.3	> 100	196 to 198	4.6 ± 0.19 µM	–	–	Brc1ccc(-c2nn3c(-c4c[nH]c5ccccc45)nnc3s2)cc1 [Compound 5e, 3-[6-(4-Bromophenyl)-[1,2,4]-triazolo[3,4-b]-[1,3,4]-thiadiazol-3-yl]-1H-indole]	4.9 ± 0.73	no activity	–
4.22 ± 0.38	2.7 ± 0.19	> 100	194 to 196	1.74 ± 0.15 µM	–	–	FC(F)(F)c1ccc(-c2nn3c(-c4c[nH]c5ccccc45)nnc3s2)cc1 [Compound 5i, 3-[6-(4-Trifluoromethylphenyl)-[1,2,4]-triazolo[3,4-b]-[1,3,4]-thiadiazol-3-yl]-1H-indole]	2.19 ± 0.72	no activity	–

Second part, the compound before the results:

SMILES	IC50 [1] [µM]	IC50 [2] [µM]	IC50 [4] [µM]	melting point [°C]	IC50 [5]	ELISA IC50 compared to (−)-gossypol positive control ([5]; competitive Bcl-2 ELISA)	IC50 [6] [µM]	IC50 [3] [µM]	activity against Jurkat cells (in words) [4]	activity against KG1A cell line (in words) ([3]; Acute Myeloid Leukemia cell line)
Sc1nn2c(-c3c[nH]c4ccccc34)nnc2s1 [Compound 4, 3-(1H-Indol-3-yl)-[1,2,4]-triazolo[3,4-b]-[1,3,4]-thiadiazole-6-thiol]	15 ± 0.6	18.2 ± 0.6	10.3 ± 0.14	170 to 172	–	–	–	28.4 ± 0.43	–	–
Brc1cccc(-c2nn3c(-c4c[nH]c5ccccc45)nnc3s2)c1 [Compound 5d, 3-[6-(3-Bromophenyl)-[1,2,4]-triazolo[3,4-b]-[1,3,4]-thiadiazol-3-yl]-1H-indole]	4.9 ± 0.75	6.48 ± 0.67	45.5 ± 0.4	179 to 182	–	–	–	20.2 ± 0.46	–	–
Clc1cccc(-c2nn3c(-c4c[nH]c5ccccc45)nnc3s2)c1 [Compound 5f, 3-[6-(3-Chlorophenyl)-[1,2,4]-triazolo[3,4-b]-[1,3,4]-thiadiazol-3-yl]-1H-indole]	12.5 ± 0.66	3.6 ± 0.52	20.5 ± 0.52	185 to 187	–	–	–	10.2 ± 0.65	–	–
Fc1cccc(-c2nn3c(-c4c[nH]c5ccccc45)nnc3s2)c1 [Compound 5g, 3-[6-(3-Fluorophenyl)-[1,2,4]-triazolo[3,4-b]-[1,3,4]-thiadiazol-3-yl]-1H-indole]	7.5 ± 0.98	1.99 ± 0.28	65.1 ± 1.25	183 to 185	–	–	–	8.6 ± 0.22	–	–
O=[N+]([O-])c1ccc(-c2nn3c(-c4c[nH]c5ccccc45)nnc3s2)cc1 [Compound 5h, 3-[6-(4-Nitrophenyl)-[1,2,4]-triazolo[3,4-b]-[1,3,4]-thiadiazol-3-yl]-1H-indole]	3.16 ± 0.32	22.1 ± 0.45	58.1 ± 1.3	196 to 198	–	–	–	34.5 ± 0.3	–	–
O=[N+]([O-])c1cccc(-c2nn3c(-c4c[nH]c5ccccc45)nnc3s2)c1 [Compound 5j, 3-[6-(3-Nitrophenyl)-[1,2,4]-triazolo[3,4-b]-[1,3,4]-thiadiazol-3-yl]-1H-indole]	3.6 ± 0.28	2.18 ± 0.73	32.2 ± 1.2	–	–	–	–	6.82 ± 0.45	–	–
COc1ccc(-c2nn3c(-c4c[nH]c5ccccc45)nnc3s2)c(OC)c1 [Compound 5k, 3-[6-(2,4-Dimethoxyphenyl)-[1,2,4]-triazolo[3,4-b]-[1,3,4]-thiadiazol-3-yl]-1H-indole]	0.7 ± 0.3	0.57 ± 0.08	> 100	178 to 180	0.32 µM and 0.3 µM and 0.34 µM and 0.36 µM	two-fold lower	0.31 to 0.7	0.31 ± 0.32	without inhibiting; also recorded: no activity	–
COc1cc(OC)cc(-c2nn3c(-c4c[nH]c5ccccc45)nnc3s2)c1 [Compound 5l, 3-[6-(3,5-Dimethoxyphenyl)-[1,2,4]-triazolo[3,4-b]-[1,3,4]-thiadiazol-3-yl]-1H-indole]	0.35 ± 0.29	1.42 ± 0.17	> 100	193 to 195	0.45 ± 0.03 µM	–	–	1.15 ± 0.27	no activity	–
Cc1cc2c(C(C)C)c(O)c(O)c(C=O)c2c(O)c1-c1c(C)cc2c(C(C)C)c(O)c(O)c(C=O)c2c1O [Gossypol, gossypol, reference compound]	5.5 ± 0.35	4.43 ± 0.54	18.1 ± 1.3	–	–	–	–	4.2 ± 0.35	–	–
